Values after ≈ are worked out from the molar mass of the structure shown.
Legend:
Type in all cases: cell-based
[1] = test system: X400 methicillin resistant Staphylococcus; experiment: Gradient plate in vitro antibiotic activity (MIC), X400 methicillin resistant Staphylococcus; details: read-out: Minimum Inhibitory Concentration
Source text: (§1) The antibiotic activity of the cephalosporin compounds of this invention is illustrated by the data provided in the following Table of representative compounds. The values in the Table are the minimum inhibitory concentrations (MIC) for the test compounds against the indicated microorganisms. The MIC values were obtained using the gradient plate in vitro method for determining antibiotic activity.
resistant Staphylococcus. X-400 is a methicillin
resistant Staphylococcus.

Pseudomonas aeruginosa = experiment: Gradient plate in vitro antibiotic activity (MIC), Pseudomonas aeruginosa; details: read-out: Minimum Inhibitory Concentration
Source text: (§2) The values in the Table are the minimum inhibitory concentrations (MIC) for the test compounds against the indicated microorganisms. The MIC values were obtained using the gradient plate in vitro method for determining antibiotic activity.

Klebsiella pneumoniae = experiment: Gradient plate in vitro antibiotic activity (MIC), Klebsiella pneumoniae; details: read-out: Minimum Inhibitory Concentration
Source text: as §2

Salmonella heidelberg = experiment: Gradient plate in vitro antibiotic activity (MIC), Salmonella heidelberg; details: Salmonella enterica, read-out: Minimum Inhibitory Concentration
Source text: as §2

Escherichia coli = experiment: Gradient plate in vitro antibiotic activity (MIC), Escherichia coli; details: read-out: Minimum Inhibitory Concentration
Source text: as §2

Serratia marcescens = experiment: Gradient plate in vitro antibiotic activity (MIC), Serratia marcescens; details: read-out: Minimum Inhibitory Concentration
Source text: as §2

[2] = test system: V41 penicillin resistant Staphylococcus; experiment: Gradient plate in vitro antibiotic activity (MIC), V41 penicillin resistant Staphylococcus; details: read-out: Minimum Inhibitory Concentration
Source text: as §1
(§3) 1. Test organisms V41, V32, and V84 are penicillin

[3] = test system: V32 penicillin resistant Staphylococcus; experiment: Gradient plate in vitro antibiotic activity (MIC), V32 penicillin resistant Staphylococcus; details: read-out: Minimum Inhibitory Concentration
Source text: as §1, §3

[4] = test system: V84 penicillin resistant Staphylococcus; experiment: Gradient plate in vitro antibiotic activity (MIC), V84 penicillin resistant Staphylococcus; details: read-out: Minimum Inhibitory Concentration
Source text: as §1, §3

Shigella sp. = experiment: Gradient plate in vitro antibiotic activity (MIC), Shigella sp.; details: read-out: Minimum Inhibitory Concentration
Source text: as §1

Aerobacter aerogenes = experiment: Gradient plate in vitro antibiotic activity (MIC), Aerobacter aerogenes; details: Klebsiella aerogenes, read-out: Minimum Inhibitory Concentration
Source text: as §1

Row | SMILES | MIC [1] [µg/mL] | MIC (Pseudomonas aeruginosa) [µg/mL] | MIC (Klebsiella pneumoniae) [µg/mL] | MIC (Salmonella heidelberg) [µg/mL] | MIC (Escherichia coli) [µg/mL] | MIC (Serratia marcescens) [µg/mL] | MIC [2] [µg/mL] | MIC [3] [µg/mL] | MIC [4] [µg/mL] | MIC (Shigella sp.) [µg/mL] | MIC (Aerobacter aerogenes) [µg/mL]
1 | CC(=O)OCC1=C(C(=O)O)N2C(=O)C(NC(=O)C(NC(=O)c3nc4ccccc4[nH]3)c3ccccc3)C2SC1 (centres unmarked) [A] | > 20 | 25 (≈ 45.5 µM) | 18.5 (≈ 33.7 µM) | 22 (≈ 40 µM) | 26.5 (≈ 48.2 µM) | 100 (≈ 182 µM) | 4 (≈ 7.28 µM) | 5 (≈ 9.1 µM) | 0.6 (≈ 1.09 µM) | 15 (≈ 27.3 µM) | 18.3 (≈ 33.3 µM)
2 | Cc1nnc(SCC2=C(C(=O)O)N3C(=O)C(NC(=O)C(NC(=O)c4nc5ccccc5[nH]4)c4ccc(O)cc4)C3SC2)s1 (centres unmarked) [E] | 100 (≈ 157 µM) | 18.5 (≈ 29 µM) | 4.5 (≈ 7.06 µM) | 16 (≈ 25.1 µM) | 16 (≈ 25.1 µM) | 70 (≈ 110 µM) | 4 (≈ 6.27 µM) | 5 (≈ 7.84 µM) | 1 (≈ 1.57 µM) | 10 (≈ 15.7 µM) | 21.5 (≈ 33.7 µM)
3 | Cn1c(SCC2=C(C(=O)O)N3C(=O)C(NC(=O)C(NC(=O)c4nc5ccccc5[nH]4)c4ccc(O)cc4)C3SC2)nnc(O)c1=O (centres unmarked) [G] | > 200 | 60 (≈ 90.3 µM) | 1 (≈ 1.5 µM) | 8.5 (≈ 12.8 µM) | 11 (≈ 16.5 µM) | 41 (≈ 61.7 µM) | 0.8 (≈ 1.2 µM) | 1.8 (≈ 2.71 µM) | 0.8 (≈ 1.2 µM) | 6.7 (≈ 10.1 µM) | 19.2 (≈ 28.9 µM)
4 | Cn1nnnc1SCC1=C(C(=O)O)N2C(=O)C(NC(=O)C(NC(=O)c3nc4ccccc4[nH]3)c3ccc(O)cc3)C2SC1 (centres unmarked) [C] | 60 (≈ 96.5 µM) | 10.5 (≈ 16.9 µM) | 0.9 (≈ 1.45 µM) | 8 (≈ 12.9 µM) | 7.5 (≈ 12.1 µM) | 20.7 (≈ 33.3 µM) | 0.9 (≈ 1.45 µM) | 0.9 (≈ 1.45 µM) | 0.8 (≈ 1.29 µM) | 5.5 (≈ 8.85 µM) | 13 (≈ 20.9 µM)
5 | Cn1nnnc1SCC1=C(C(=O)O)N2C(=O)C(NC(=O)C(NC(=O)c3nc4ccccc4[nH]3)c3ccccc3)C2SC1 (centres unmarked) [B] | > 20 | 22 (≈ 36.3 µM) | 5 (≈ 8.26 µM) | 6.5 (≈ 10.7 µM) | 18.5 (≈ 30.5 µM) | 21.5 (≈ 35.5 µM) | 5 (≈ 8.26 µM) | 7 (≈ 11.6 µM) | 0.7 (≈ 1.16 µM) | 5 (≈ 8.26 µM) | 8.5 (≈ 14 µM)
6 | NC(=O)OCC1=C(C(=O)O)N2C(=O)C(NC(=O)C(NC(=O)c3nc4ccccc4[nH]3)c3ccc(O)cc3)C2SC1 (centres unmarked) [F] | 120 (≈ 212 µM) | 19.5 (≈ 34.4 µM) | 10 (≈ 17.7 µM) | 19.5 (≈ 34.4 µM) | 55 (≈ 97.1 µM) | > 200 | 0.9 (≈ 1.59 µM) | 0.9 (≈ 1.59 µM) | 0.8 (≈ 1.41 µM) | 19.5 (≈ 34.4 µM) | 55 (≈ 97.1 µM)
7 | Cn1nnnc1SCC1=C(C(=O)O)N2C(=O)C(NC(=O)C(NC(=O)c3nc4ccccc4[nH]3)c3cccs3)C2SC1 (centres unmarked) [D] | 19.5 (≈ 31.9 µM) | 14.8 (≈ 24.2 µM) | 0.6 (≈ 0.981 µM) | 7.5 (≈ 12.3 µM) | 7 (≈ 11.4 µM) | 14.8 (≈ 24.2 µM) | 0.6 (≈ 0.981 µM) | 0.6 (≈ 0.981 µM) | 0.5 (≈ 0.817 µM) | 4 (≈ 6.54 µM) | 10 (≈ 16.3 µM)
